Measurements reported in a melting point compilation (Tetko et al.; mined from patent text by program, amines drawn as free bases though some values may be those of a salt).

SMILES	melting point [°C]
N#Cc1ccc(-c2cccc(-c3cn4cc(C#N)ccc4n3)c2)cc1	290 to 292
CC(C)n1nc(CC(=O)c2cccc(Cl)c2)ccc1=O	85 to 86
CCOC(=O)c1ccc(N2CCC(NCC(O)COc3ccc(N)nc3)CC2)nc1 (stereo unspecified)	120 to 122
CC(=O)OC1C=C(C)C(=O)CC(C)(C)C1OC(C)=O (stereo unspecified)	68 to 69
Cc1noc(NS(=O)(=O)c2ccc(Nc3ccc(N)cc3N)cc2)c1C	181 to 183
N#CSCCNc1cc(Cl)ccc1[N+](=O)[O-]	115 to 116
O=C(NCCc1ccccn1)c1ccc2cc(C(=O)N3CC(CCl)c4ccc([N+](=O)[O-])cc43)[nH]c2c1 (stereo unspecified)	204 to 207
CC(C)(C)c1cc(CO)nn1-c1ccc(S(C)(=O)=O)cc1	143 to 146
ClC1(NC2(Cc3ccncc3)NN=Cc3ccncc32)C=CC=CC1 (stereo unspecified)	220 to 221
Cc1ccc(C=C2C=C(C(C)(C)C)C=C(C(C)(C)C)C2=O)cc1C	214 to 217
N#Cc1ccccc1N1CCN(Cc2cn3cc(Cl)ccc3n2)CC1	167 to 169
CCc1noc(-c2ncc3[nH]c4cccc(CN5CCOCC5)c4c3c2COC)n1	161 to 163
CC(C)(O)CNC(=O)CC1CN=C(c2cc3cc(Oc4ccc(S(C)(=O)=O)nc4)ccc3[nH]2)S1 (stereo unspecified)	178 to 179
Cc1noc(NS(=O)(=O)c2ncccc2C(=O)Nc2ccccc2)c1C	199 to 200
O=C(O)c1[nH]c(=O)c2ccc(Cl)cc2c1-c1ccccc1	> 300
Nc1ccc(Cl)n2nc(SCc3ccccc3)nc12	113 to 114

SMILES	melting point [°C]
Cc1ccc(C2COc3c(C)c(C)cc(C)c32)nc1 (stereo unspecified)	69 to 70
N#Cc1cccc(C(=O)c2ccc(Cl)cc2)c1	142
COc1ccc(CCNc2c(C)c(C)c3c(c2C)C(c2ccc(C(C)C)cc2)C(C)(C)O3)cc1 (stereo unspecified)	63 to 65
O=C(O)COc1cc(Cl)ccc1C(=O)NCc1ccc(Cl)cc1	184 to 186
N#Cc1c(N2CCN(C(=O)c3cccs3)CC2)c2cc(Cl)cnc2n(Cc2ccccc2)c1=O	221
O=C=Nc1ccc(OC(=O)CCC(=O)Oc2ccc(N=C=O)cc2)cc1	193 to 195
CCS(=O)(=O)Nc1cc(-c2ncnc(OC)c2C#N)c(F)cc1C#N	187 to 189
O=c1oc2cc(O)c(O)c([N+](=O)[O-])c2c2c1CCCC2	238 to 255
O=C(CN1C(=O)C(NC(=O)c2cc3ccccc3[nH]2)C(c2ccccc2)Sc2ccccc21)NCCc1ccccc1 (stereo unspecified)	157 to 163
CCCCCn1c2ccc(C(=O)NN3CCCCC3)cc2c2ccc(OC)cc21	178 to 179
CS(=O)(=O)c1ccc(-c2cnn(-c3ccc(F)cc3)c(=O)c2Cc2cccc(F)c2)cc1	176 to 178
COc1ccc(Cn2ccnc2C=Cc2ccc([N+](=O)[O-])o2)cc1	151 to 152
CC(C)(C)OC(=O)[C@H](COC(=O)N(N)c1ccc(CC(=O)O)cc1)C(=O)OC(c1ccccc1)c1ccccc1	165 to 166
O=C1CCCCC1c1c[nH]c2ccccc12 (stereo unspecified)	122 to 124
CCOC(=O)c1c(Cl)nc2cc(OC)c(OC)cc2c1-c1ccc(OC)c(OC)c1	168 to 169

The next lines start with the values.

melting point [°C]	SMILES
161 to 162	O=CNCCOc1cccc2c1c1ccccc1n2Cc1ccccc1
294	Cn1cc(-c2cc(-c3cnc4[nH]ncc4c3)ccn2)n(-c2ccc(C(C)(C)C#N)cc2)c1=O
143 to 144	COC(=O)C(=O)c1ccc(OCCCNC(=O)c2ccc3ccccc3c2)cc1
136	O=C(c1ccccc1F)c1cccc2c1N(C(=O)CBr)CC2
298 to 300	CS(=O)(=O)c1ccc2c(c1)[nH]c(=S)n2NC(=O)c1ccc(Cl)c(S(N)(=O)=O)c1
7	CCCCC(=O)NCCCSCCO
123 to 126	Cc1cc(C)c(N)nn1
> 300	Clc1nc2ccccc2c2c1ncn2Cc1ccncc1
132 to 135	S=C(Nc1cccc(Cl)c1)N1CCCSC1c1ccccc1 (stereo unspecified)
110 to 116	N#Cc1ccc2ccc(CBr)cc2c1
89 to 90	CN1CC(CCN2CCN(c3cc(Cl)cc(Cl)c3)CC2)OC1=O (stereo unspecified)
141 to 143	COc1ccc(CCNC(=O)C(=O)NCc2ccccn2)cc1OC1CCCC1
209 to 211	CC(C)(C)c1ccnc(C(=O)c2[nH]c3ccc(Cl)cc3c2CC(=O)O)c1
281 to 282	Cc1nc(-c2c(Cl)cc(C(F)(F)F)cc2Cl)[nH]c1C
129 to 130	CCCC(O)(CCC)c1c2c(nn1C)N(c1c(C)cc(C)cc1Cl)CCC2
205 to 206	CS(=O)(=O)c1ccc(Oc2ccc([N+](=O)[O-])cc2C#N)cc1
130	CC(C)(C)OC(=O)Nc1ccc(NC(=O)OC(C)(C)C)c(Br)c1
94	CCCCc1c(-c2cccnn2)ssc1=S
220 to 221	COc1ccc(S(=O)(=O)Nc2nsc(-c3ccc(Cl)cc3)n2)cc1OC
172 to 174	CCOc1cc(N)c(Cl)cc1C(=O)NCC1CN(CC2CCN(Cc3cccc(F)c3)CC2)CCO1 (stereo unspecified)

melting point [°C]	SMILES
113	COC(=O)c1cc(C)cc(Br)c1NS(=O)(=O)c1ccc(OC)cc1
131 to 133	CC(=O)c1ccc(OCc2ccccc2)c2ncccc12
120 to 121	CCOC(=O)c1cnoc1-c1cc(Cl)c(Cl)s1
250 to 254	Cc1ccc(-c2ncc(O)nc2-c2ccc(C)cc2)cc1
107 to 108	CCCc1nc2cccc(C(=S)OC)c2n1Cc1ccc(-c2ccccc2C#N)cc1
274 to 276	CCn1c(=O)c(C#N)c(O)c2ccc(C)nc21
243 to 253	O=C1c2ccccc2-c2[nH]c(=O)c(=O)[nH]c21
143 to 144	CC(=O)OC1CSC(Oc2cc(-c3ccncc3)cnc2F)C(OC(C)=O)C1OC(C)=O (stereo unspecified)
224 to 225	O=C(NC(CC12CC3CC(CC(C3)C1)C2)Nc1c(Nc2cccnc2)c(=O)c1=O)c1ccccc1Cl (stereo unspecified)
79 to 80	CCCN(CCC)C(=O)n1cnc(S(=O)(=O)CCC)n1
154 to 156	COc1nc(NC(=O)NS(=O)(=O)c2cscc2C)nc(OC)n1
223 to 225	CCC(=O)NS(=O)(=O)c1ccc(C(=O)C=Cc2cc(-c3cc4ccccc4[nH]3)c(OC)cc2OC)cc1
160	CCOC(=O)N1CCC(n2c(=O)[nH]c3cc(Cl)ccc32)CC1
153 to 156	CS(=O)(=O)c1ccc(-c2cnn(-c3ccc(F)c(Cl)c3)c(=O)c2Cc2ccc(F)cc2)cc1
210 to 211	Nc1ncccc1-c1nc2cc(C3CCCC3)cnc2n1-c1ccc(CNC(=O)c2ccccc2)cc1
87 to 89	Cc1cn(C(C)C(=O)N(C)C)nc1-c1ccccc1 (stereo unspecified)
270	O=C(Nc1nccs1)c1c(C(F)(F)F)nc2cc(C(F)(F)F)ccc2c1O
168 to 169	O=C(NCCO)c1cccc(-c2nccc3cc(Cc4cccc(C(F)(F)F)c4)oc23)c1
216 to 218	COc1ccc2c(c1)C(=O)Nc1ccccc1N2
100 to 102	CCCNC(=O)c1c(Cl)cccc1OC(C)(CC)CC
